Data as given in ChEMBL document CHEMBL5291721, “A preclinical secondary pharmacology resource illuminates target-adverse drug reaction associations of marketed drugs” (Nat Commun, 2023).

Experiments:
[1] = molecular target: 5-hydroxytryptamine receptor 2B (Homo sapiens, UniProt P41595)
[2] = molecular target: Hydroxycarboxylic acid receptor 2 (Homo sapiens, UniProt Q8TDS4)
[3] = molecular target: Beta-1 adrenergic receptor (Homo sapiens, UniProt P08588); format: functional, cell-based
D(1A) dopamine receptor = D(1A) dopamine receptor (Homo sapiens, UniProt P21728); format: functional, cell-based
[4] = molecular target: T1, Muscarinic acetylcholine receptor M1 (Homo sapiens, UniProt P11229); format: functional, cell-based
T1 sequence (P11229 whole entry): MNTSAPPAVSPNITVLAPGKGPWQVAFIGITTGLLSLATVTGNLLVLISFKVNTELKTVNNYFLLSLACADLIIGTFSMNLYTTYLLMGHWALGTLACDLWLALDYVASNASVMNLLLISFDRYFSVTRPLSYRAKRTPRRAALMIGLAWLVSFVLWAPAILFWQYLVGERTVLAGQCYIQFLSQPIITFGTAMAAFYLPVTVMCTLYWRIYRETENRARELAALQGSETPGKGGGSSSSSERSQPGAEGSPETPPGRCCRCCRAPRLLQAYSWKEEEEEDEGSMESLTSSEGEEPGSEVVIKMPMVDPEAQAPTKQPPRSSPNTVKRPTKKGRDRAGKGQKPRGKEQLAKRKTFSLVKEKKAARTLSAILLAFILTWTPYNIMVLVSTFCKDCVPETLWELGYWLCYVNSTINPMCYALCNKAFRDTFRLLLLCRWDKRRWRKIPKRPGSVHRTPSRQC

[5] = molecular target: T1, Muscarinic acetylcholine receptor M1; format: functional, cell-based; remark: listed apart in the source
[6] = molecular target: Sodium-dependent serotonin transporter (Homo sapiens, UniProt P31645)
D(1B) dopamine receptor = D(1B) dopamine receptor (Homo sapiens, UniProt P21918)
[7] = molecular target: Rod cGMP-specific 3',5'-cyclic phosphodiesterase subunit alpha (Homo sapiens, UniProt P16499); format: functional
[8] = molecular target: Voltage-dependent L-type calcium channel subunit alpha-1C (Homo sapiens, UniProt Q13936); format: functional, cell-based
[9] = molecular target: 5-hydroxytryptamine receptor 5A (Homo sapiens, UniProt P47898)
Substance-K receptor = molecular target: T2, Substance-K receptor (Homo sapiens, UniProt P21452)
T2 sequence (P21452 whole entry): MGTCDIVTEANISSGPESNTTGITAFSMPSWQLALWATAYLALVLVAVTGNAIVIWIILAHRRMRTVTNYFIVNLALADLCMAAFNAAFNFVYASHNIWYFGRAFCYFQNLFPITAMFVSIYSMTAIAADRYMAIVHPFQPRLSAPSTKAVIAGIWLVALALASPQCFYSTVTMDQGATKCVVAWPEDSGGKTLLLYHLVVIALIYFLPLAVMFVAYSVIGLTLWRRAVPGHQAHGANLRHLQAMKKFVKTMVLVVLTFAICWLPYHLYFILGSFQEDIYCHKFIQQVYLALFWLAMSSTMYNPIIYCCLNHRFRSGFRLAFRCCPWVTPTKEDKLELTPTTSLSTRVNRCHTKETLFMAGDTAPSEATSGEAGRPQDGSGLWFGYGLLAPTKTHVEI

[10] = molecular target: T3, Type-2 angiotensin II receptor (Homo sapiens, UniProt P50052); format: functional
[11] = molecular target: T4, Type-1 angiotensin II receptor (Homo sapiens, UniProt P30556)
T4 sequence (P30556 whole entry): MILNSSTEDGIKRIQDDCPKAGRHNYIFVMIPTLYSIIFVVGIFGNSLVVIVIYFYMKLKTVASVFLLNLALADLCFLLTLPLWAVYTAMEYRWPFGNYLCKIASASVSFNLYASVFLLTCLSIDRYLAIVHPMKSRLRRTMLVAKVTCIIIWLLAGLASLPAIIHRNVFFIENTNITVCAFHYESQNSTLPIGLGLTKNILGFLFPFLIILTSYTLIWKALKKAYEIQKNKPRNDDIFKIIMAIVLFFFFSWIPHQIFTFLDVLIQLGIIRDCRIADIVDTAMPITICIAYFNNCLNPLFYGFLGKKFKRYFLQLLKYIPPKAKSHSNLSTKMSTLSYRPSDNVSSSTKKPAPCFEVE

[12] = molecular target: T3, Type-2 angiotensin II receptor; format: functional; remark: listed apart in the source
[13] = molecular target: T1, Muscarinic acetylcholine receptor M1
[14] = molecular target: T4, Type-1 angiotensin II receptor; remark: listed apart in the source
Further: assay procedure not described here.

Rod cGMP-specific 3',5'-cyclic phosphodiesterase subunit alpha, sequence (P16499 whole entry): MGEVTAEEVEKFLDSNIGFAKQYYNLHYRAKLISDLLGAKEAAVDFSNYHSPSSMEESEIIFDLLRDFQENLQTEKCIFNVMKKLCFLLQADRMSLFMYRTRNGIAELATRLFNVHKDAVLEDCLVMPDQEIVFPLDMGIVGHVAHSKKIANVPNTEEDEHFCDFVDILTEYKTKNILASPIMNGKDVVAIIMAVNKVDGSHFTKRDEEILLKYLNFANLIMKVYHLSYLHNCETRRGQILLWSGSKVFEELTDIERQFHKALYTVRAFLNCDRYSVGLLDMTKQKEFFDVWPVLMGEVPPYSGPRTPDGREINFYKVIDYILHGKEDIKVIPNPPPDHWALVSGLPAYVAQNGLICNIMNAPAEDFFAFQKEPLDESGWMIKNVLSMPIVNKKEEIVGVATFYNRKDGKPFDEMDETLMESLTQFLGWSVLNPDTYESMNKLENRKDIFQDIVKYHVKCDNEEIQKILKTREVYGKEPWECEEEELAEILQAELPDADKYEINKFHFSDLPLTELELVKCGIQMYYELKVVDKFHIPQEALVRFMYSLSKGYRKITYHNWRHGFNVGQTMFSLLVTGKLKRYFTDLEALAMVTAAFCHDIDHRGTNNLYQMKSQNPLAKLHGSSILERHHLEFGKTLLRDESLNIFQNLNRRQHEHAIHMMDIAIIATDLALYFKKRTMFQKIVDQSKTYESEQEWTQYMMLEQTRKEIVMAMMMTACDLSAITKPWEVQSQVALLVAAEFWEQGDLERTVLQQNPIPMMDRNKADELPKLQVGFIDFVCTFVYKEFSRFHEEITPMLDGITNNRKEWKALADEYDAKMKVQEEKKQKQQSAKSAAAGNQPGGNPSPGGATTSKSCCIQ
T3 sequence (P50052 whole entry): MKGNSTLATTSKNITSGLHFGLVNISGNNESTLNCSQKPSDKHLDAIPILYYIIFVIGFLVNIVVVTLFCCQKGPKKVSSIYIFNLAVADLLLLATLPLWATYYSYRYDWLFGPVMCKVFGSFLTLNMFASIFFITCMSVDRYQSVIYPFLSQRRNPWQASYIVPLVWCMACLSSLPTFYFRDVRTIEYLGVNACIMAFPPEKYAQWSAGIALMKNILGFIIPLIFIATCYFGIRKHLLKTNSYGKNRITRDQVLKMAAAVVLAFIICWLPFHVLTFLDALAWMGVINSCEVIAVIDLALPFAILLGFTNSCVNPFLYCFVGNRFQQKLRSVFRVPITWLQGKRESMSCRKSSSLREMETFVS
D(1B) dopamine receptor, sequence (P21918 whole entry): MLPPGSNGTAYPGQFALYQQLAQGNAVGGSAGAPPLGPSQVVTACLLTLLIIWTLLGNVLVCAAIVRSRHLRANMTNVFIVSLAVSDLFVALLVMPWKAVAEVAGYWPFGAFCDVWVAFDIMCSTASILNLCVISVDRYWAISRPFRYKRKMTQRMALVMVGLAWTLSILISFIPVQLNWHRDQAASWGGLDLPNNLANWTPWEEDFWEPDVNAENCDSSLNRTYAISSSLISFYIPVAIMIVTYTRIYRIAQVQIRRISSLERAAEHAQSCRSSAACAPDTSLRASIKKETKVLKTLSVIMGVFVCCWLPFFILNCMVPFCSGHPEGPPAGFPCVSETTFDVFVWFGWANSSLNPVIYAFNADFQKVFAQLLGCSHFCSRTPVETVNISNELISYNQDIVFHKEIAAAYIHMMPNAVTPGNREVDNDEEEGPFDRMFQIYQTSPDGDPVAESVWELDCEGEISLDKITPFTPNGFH
Beta-1 adrenergic receptor, sequence (P08588 whole entry): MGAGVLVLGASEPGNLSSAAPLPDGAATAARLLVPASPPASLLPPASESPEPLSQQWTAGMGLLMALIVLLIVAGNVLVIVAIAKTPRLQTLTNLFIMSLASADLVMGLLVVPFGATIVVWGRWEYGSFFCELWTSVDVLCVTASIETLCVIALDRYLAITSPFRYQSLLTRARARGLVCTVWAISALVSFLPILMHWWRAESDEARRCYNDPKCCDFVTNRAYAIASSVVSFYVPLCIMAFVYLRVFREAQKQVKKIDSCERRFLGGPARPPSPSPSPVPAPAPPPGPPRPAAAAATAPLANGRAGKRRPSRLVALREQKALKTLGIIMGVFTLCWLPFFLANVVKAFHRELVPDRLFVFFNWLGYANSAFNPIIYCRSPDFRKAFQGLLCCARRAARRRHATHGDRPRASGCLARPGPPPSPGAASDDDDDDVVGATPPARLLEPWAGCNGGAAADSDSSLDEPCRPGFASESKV
5-hydroxytryptamine receptor 5A, sequence (P47898 whole entry): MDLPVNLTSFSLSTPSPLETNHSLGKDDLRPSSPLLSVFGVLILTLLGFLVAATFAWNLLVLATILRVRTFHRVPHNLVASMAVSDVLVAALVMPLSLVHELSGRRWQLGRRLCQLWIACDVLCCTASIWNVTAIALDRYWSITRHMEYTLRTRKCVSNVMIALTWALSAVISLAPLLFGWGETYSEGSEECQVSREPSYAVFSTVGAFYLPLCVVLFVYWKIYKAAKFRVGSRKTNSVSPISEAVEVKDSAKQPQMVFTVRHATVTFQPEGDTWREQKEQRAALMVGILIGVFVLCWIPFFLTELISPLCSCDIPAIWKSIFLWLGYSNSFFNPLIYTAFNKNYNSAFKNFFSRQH
Sodium-dependent serotonin transporter, sequence (P31645 whole entry): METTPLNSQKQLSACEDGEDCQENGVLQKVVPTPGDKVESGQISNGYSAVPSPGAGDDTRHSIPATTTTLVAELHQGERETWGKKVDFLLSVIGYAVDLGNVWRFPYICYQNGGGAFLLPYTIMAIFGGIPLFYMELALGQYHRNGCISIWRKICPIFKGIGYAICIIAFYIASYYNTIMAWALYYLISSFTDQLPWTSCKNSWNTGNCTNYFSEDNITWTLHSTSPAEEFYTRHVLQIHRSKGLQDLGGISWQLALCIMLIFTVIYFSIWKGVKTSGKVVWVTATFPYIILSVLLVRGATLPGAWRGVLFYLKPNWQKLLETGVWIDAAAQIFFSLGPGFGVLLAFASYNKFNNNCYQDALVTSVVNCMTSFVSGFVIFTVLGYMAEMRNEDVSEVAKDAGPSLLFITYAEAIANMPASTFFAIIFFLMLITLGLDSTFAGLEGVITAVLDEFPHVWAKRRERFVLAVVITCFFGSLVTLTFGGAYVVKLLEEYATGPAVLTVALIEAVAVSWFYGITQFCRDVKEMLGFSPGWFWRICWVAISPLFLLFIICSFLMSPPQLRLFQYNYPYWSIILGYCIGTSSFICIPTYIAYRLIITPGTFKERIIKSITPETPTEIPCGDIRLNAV
D(1A) dopamine receptor, sequence (P21728 whole entry): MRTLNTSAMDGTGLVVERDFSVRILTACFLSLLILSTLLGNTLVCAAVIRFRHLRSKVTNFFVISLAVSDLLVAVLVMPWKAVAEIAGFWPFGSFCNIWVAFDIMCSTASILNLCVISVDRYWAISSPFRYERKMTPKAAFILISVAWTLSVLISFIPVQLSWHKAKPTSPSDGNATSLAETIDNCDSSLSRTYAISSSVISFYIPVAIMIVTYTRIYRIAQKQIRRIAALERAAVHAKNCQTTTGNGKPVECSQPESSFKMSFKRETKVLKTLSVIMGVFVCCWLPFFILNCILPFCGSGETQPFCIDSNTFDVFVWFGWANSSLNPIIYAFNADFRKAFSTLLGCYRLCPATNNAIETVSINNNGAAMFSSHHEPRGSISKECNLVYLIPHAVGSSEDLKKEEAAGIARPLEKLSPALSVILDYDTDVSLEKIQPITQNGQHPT
5-hydroxytryptamine receptor 2B, sequence (P41595 whole entry): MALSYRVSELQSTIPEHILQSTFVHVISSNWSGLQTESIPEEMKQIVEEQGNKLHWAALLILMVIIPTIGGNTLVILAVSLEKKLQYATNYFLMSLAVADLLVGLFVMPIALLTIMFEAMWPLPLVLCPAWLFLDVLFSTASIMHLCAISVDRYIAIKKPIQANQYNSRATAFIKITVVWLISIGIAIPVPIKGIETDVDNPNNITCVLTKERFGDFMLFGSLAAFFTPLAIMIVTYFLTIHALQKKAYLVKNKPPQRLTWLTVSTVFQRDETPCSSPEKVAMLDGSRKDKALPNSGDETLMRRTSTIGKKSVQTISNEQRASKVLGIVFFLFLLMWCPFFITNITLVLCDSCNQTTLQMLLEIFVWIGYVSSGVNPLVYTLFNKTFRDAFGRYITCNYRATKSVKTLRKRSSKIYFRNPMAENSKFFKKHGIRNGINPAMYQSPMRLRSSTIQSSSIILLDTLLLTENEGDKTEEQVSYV
Hydroxycarboxylic acid receptor 2, sequence (Q8TDS4 whole entry): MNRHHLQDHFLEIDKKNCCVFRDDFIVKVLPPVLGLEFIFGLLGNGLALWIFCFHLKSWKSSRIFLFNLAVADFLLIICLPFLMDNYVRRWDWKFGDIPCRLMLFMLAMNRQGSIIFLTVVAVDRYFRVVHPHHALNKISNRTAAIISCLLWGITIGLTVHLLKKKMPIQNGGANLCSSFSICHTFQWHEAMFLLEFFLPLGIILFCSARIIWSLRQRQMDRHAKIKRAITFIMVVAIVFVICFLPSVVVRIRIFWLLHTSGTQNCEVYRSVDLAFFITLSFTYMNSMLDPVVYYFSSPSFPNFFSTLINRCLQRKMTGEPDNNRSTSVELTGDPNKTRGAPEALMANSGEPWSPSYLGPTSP

CCCN[C@H]1CCc2nc(N)sc2C1 [PRAMIPEXOLE]
AC50 [1]: 18.4 µM

CCC(=O)O[C@]1(C(=O)SCF)[C@H](C)C[C@H]2[C@@H]3C[C@H](F)C4=CC(=O)C=C[C@]4(C)[C@@]3(F)[C@@H](O)C[C@@]21C [FLUTICASONE PROPIONATE]
AC50 [2]: > 10 µM

Cc1cc(C(C)(C)C)cc(C)c1CC1=NCCN1 [XYLOMETAZOLINE]
AC50 [3]: > 30 µM
AC50 (D(1A) dopamine receptor): > 30 µM

CC1OC2(CS1)CN1CCC2CC1 (configuration not stated) [CEVIMELINE]
AC50 [4]: > 30 µM
AC50 [5]: 19 µM

OC1(c2ccc(Cl)cc2)c2ccccc2C2=NCCN21 (configuration not stated) [MAZINDOL]
AC50 [6]: 0.23 µM
AC50 (D(1B) dopamine receptor): > 10 µM
AC50 [7]: > 10 µM
AC50 [8]: > 50 µM
AC50 [9]: > 10 µM
AC50 (Substance-K receptor): > 10 µM

CC(C(=O)O)c1ccc(CC2CCCC2=O)cc1 (configuration not stated) [LOXOPROFEN]
AC50 [3]: > 30 µM

CN1CCN(C2=Nc3ccccc3Oc3ccc(Cl)cc32)CC1 [LOXAPINE]
AC50 (D(1B) dopamine receptor): 0.248 µM
AC50 [7]: > 10 µM
AC50 [9]: 1.04 µM
AC50 (Substance-K receptor): > 10 µM

CCCc1nc(C(C)(C)O)c(C(=O)O)n1Cc1ccc(-c2ccccc2-c2nnn[nH]2)cc1 [OLMESARTAN]
AC50 [10]: 54 µM
AC50 [11]: 0.0008 µM

CC(CCc1ccc(O)cc1)NCCc1ccc(O)c(O)c1 (configuration not stated) [DOBUTAMINE]
AC50 [12]: > 100 µM

O=[N+]([O-])c1ccc(O)c2ncccc12 [NITROXOLINE]
AC50 [13]: > 30 µM

CC(C)NCC(O)c1ccc(O)c(O)c1 (configuration not stated) [ISOPROTERENOL]
AC50 [14]: > 100 µM
